Results from patent US20210236582A1, “ANTIMICROBIAL COMPOSITION BASED ON POLYPHENOLS AND POLYSACCHARIDES, METHOD FOR PREPARING THEREOF AND USE OF THE SAME” (priority 2018, published 2021).
In brackets after ≈: the same amount, converted by molar mass.

What was measured:
[1] = test system: Influenza A/Puerto-Rico/8/34 (H1N1) virus; assay type: cell-based; details: for Antiviral activity against A/PR8 (H1N1) virus ΔlgTCID50 av: pronounced antiviral activity ≥ 1.50
in vitro = details: dog
MDCK ECACC cell line = details: MDCK ECACC cells, 48 h incubation, MTS

Compound	Antiviral activity against A/PR8 (H1N1) virus ΔlgTCID50 av [1]	CC50 at 48 h (in vitro)	Cytotoxicity CC50 av (MDCK ECACC cell line)	Antiviral activity against A/PR8 (H1N1) virus IC50 av ([1]; MDCK ECACC cells, assessed after 48 h by CPE and HAR)
Cc1cc2c(C(C)C)c(O)c(O)cc2c(O)c1-c1c(C)cc2c(C(C)C)c(O)c(O)cc2c1O [Apogossypol, apogossypol]	0.50	9.4 µg/mL (≈ 20.3 µM)	–	–
gossypol acetic acid	1.32	–	3.9 µg/mL	0.0012
